Key:
Type in all cases: cell-based
[1] = target: T1, hCB1 (Homo sapiens, UniProt P21554); experiment: cAMP assay (LANCE TR-FRET) in CHO-K1 cells stably expressing hCB1, agonist/inverse agonist; conditions: intracellular cAMP, CHO-K1 hCB1 cells prestimulated with NKH-477, + agonist, − inverse agonist; for EC50: read-out: hCB1 EC50 class
T1 construct: host or cells: CHO-K1
Description: (§1) The ability of compounds to act as agonists or inverse agonists at human CB2 and CB1 receptors (hCB2, hCB1, respectively) was determined by measuring changes in intracellular cAMP levels. Chinese Hamster Ovary (CHO-K1) cell lines stably expressing hCB2 (Genebank: X74328) or hCB1 (Genebank: X54937) were purchased from Euroscreen (Gosselies, Belgium).
(§2) Cell lines were grown in suspension in EX-CELL 302 CHO Serum-free medium (Sigma, cat #14324C) supplemented with 1% Fetal Bovine Serum, glutamine and non-essential amino-acids under 0.4 mg/mL G418 selection.
(§3) Receptor mediated responses were determined by measuring changes in intracellular cAMP using LANCE cAMP detection kit (cat #AD0264, PerkinElmer, Wellesley, Mass.) based on time-resolved fluorescence resonance energy transfer (TR-FRET). Changes in cAMP were determined in cells pre-incubated with IBMX (isobutyl methylxanthine) and prestimulated with NKH-477 (a water soluble forskolin derivative, cat #1603, Tocris, Ellisville, Mo.) to increase basal cAMP levels as detailed below.
(§4) On the day of the experiment, cells were spun at low speed for 5 min at room temperature. The supernatant was removed and cells were resuspended in stimulation buffer (Hanks Buffered Salt Solution/5 mM HEPES, containing 0.5 mM IBMX (cat #17018, Sigma) and 0.02% BSA (PerkinElmer, cat #CR84-100)). Cell clumps were removed by filtering through cell strainer 40 μm (BD Falcon, Discovery Labware, Bedford, Mass.) and diluted to 2×10^5 cells/mL. Antibody supplied with the LANCE cAMP immunoassay kit was then added according to the manufacturer's instructions. An aliquot of cells was taken for un-induced controls. To the remaining cells was added NKH-477 (a water soluble forskolin derivative, Tocris cat #1603) to a final concentration of 2-8 μM. Cells were then incubated for 30 min at room temperature prior to adding to Proxiplates containing test compounds (final DMSO concentration was less than 0.5%) with a Multidrop bulk dispenser, followed by a sixty minute incubation at room temperature. The response was stopped by addition of the detection mix supplied with the LANCE kit.
(§5) The reagents were allowed to equilibrate for three hours prior to reading on an Envision multi-mode detector (PerkinElmer). TR-FRET was measured using a 330-380 nm excitation filter, a 665 nm emission filter, dichroic mirror 380 nm and Z=1 mm.
(§6) Cyclic AMP concentrations in each well were back-calculated from a cAMP standard curve run concurrently during each assay. Each plate contained 16 wells of forskolin stimulated cells and 16 wells of forskolin plus CP55,940-treated. CP55,940-treated cells were treated with CP55,940 (Tocris cat. # 0949) at 1 μm and the maximal response was used as the full range (100%) standard. WIN55,212 (Tocris cat. # 1038) was used as an internal standard. Concentrations of cAMP were expressed as a percent of the difference of these two groups of wells. Concentration-response data including ECso (the concentration of compound producing 50% of the maximal response) and intrinsic activity (the percent maximal activation compared to full activation by CP55,940) were determined using a four-parameter non-linear regression algorithm (Xlfit equation 251, IDBS).

[2] = target: T2, rCB2 (Rattus norvegicus, UniProt Q9QZN9); experiment: cAMP assay, rCB2 in Table 7, agonist/inverse agonist; conditions: intracellular cAMP; + agonist, − inverse agonist
T2 sequence (Q9QZN9 1-360): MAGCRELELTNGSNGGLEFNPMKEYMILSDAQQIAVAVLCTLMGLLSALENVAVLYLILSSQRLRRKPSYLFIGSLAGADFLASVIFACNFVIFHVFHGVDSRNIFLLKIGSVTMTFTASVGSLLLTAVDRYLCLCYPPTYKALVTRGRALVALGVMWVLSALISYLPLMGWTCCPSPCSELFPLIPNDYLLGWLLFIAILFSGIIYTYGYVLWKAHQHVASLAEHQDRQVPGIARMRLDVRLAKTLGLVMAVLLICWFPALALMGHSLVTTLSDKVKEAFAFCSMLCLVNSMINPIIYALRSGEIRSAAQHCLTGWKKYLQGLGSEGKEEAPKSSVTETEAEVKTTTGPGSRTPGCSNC
Description: as §3, §4, §5, §6

[3] = target: T3, hCB2 (Homo sapiens, UniProt P34972); experiment: cAMP assay (LANCE TR-FRET) in CHO-K1 cells stably expressing hCB2, agonist/inverse agonist; conditions: intracellular cAMP, CHO-K1 hCB2 cells prestimulated with NKH-477; + agonist, − inverse agonist
T3 construct: host or cells: CHO-K1
T3 sequence (P34972 whole entry): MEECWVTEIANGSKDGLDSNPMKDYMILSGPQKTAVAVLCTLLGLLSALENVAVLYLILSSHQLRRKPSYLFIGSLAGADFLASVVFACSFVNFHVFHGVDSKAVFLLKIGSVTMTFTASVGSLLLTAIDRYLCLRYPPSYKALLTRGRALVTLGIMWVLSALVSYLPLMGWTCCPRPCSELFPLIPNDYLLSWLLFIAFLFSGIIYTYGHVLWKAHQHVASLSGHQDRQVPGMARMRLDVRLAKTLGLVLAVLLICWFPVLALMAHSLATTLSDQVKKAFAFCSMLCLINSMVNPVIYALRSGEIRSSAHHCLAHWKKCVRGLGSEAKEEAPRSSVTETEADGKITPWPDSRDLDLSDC
Description: as §1, §2, §3, §4, §5, §6

T1 sequence (P21554 whole entry): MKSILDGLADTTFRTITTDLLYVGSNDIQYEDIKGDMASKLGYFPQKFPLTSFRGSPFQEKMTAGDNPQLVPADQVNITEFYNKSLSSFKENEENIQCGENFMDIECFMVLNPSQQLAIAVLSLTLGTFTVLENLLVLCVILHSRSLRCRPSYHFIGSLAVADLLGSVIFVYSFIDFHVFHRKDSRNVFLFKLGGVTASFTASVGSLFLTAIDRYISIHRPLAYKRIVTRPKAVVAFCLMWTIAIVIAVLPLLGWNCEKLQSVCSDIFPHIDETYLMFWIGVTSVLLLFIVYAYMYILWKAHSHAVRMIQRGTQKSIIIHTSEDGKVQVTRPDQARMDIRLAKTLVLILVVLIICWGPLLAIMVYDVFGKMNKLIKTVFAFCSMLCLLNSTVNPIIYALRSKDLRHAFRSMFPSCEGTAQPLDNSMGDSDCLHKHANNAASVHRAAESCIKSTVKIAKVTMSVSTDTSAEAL

Row | SMILES | EC50 [1] | rCB2 EC50 class [2] | hCB2 EC50 class [3] | hCB1 EC50 class [1]
1 | O=c1c(-c2ccoc2)cc2c(n1CC1CCC1)CCCC2 [Compound 12, 1-(cyclobutylmethyl)-3-(furan-3-yl)-5,6,7,8-tetrahydroquinolin-2(1H)-one] | > 10 µM | +B | +C | 
2 | O=c1c(-c2ccccc2F)cc2c(n1CC1CCC1)CCCC2 [Compound 15, 1-(cyclobutylmethyl)-3-(2-fluorophenyl)-5,6,7,8-tetrahydroquinolin-2(1H)-one] | > 10 µM | +B | +B | 
3 | COc1cccc(-c2cc3c(n(CC4CCC4)c2=O)CCCC3)c1 [Compound 16, 1-(cyclobutylmethyl)-3-(3-methoxyphenyl)-5,6,7,8-tetrahydroquinolin-2(1H)-one] | > 10 µM | +B | +B | 
4 | O=c1c(-c2ccccc2Cl)cc2c(n1CC1CCC1)CCCC2 [Compound 18, 3-(2-chlorophenyl)-1-(cyclobutylmethyl)-5,6,7,8-tetrahydroquinolin-2(1H)-one] | > 10 µM | +B | +B | 
5 | O=c1c(-c2ccc(Cl)cc2)cc2c(n1CC1CCC1)CCCC2 [Compound 19, 3-(4-chlorophenyl)-1-(cyclobutylmethyl)-5,6,7,8-tetrahydroquinolin-2(1H)-one] | > 10 µM | +B | +B | 
6 | O=c1c(-c2ccccc2C(F)(F)F)cc2c(n1CC1CCC1)CCCC2 [Compound 20, 1-(cyclobutylmethyl)-3-(2-(trifluoromethyl)phenyl)-5,6,7,8-tetrahydroquinolin-2(1H)-one] | > 10 µM | +B | +B | 
7 | O=c1c(-c2cccc(Cl)c2)cc2c(n1CC1CC1)CCCC2 [Compound 22, 3-(3-chlorophenyl)-1-(cyclopropylmethyl)-5,6,7,8-tetrahydroquinolin-2(1H)-one] | > 10 µM | −B | +B | 
8 | O=c1c(-c2ccc(C(F)(F)F)cc2)cc2c(n1CC1CCCCC1)CCCC2 [Compound 23, 1-(cyclohexylmethyl)-3-(4-(trifluoromethyl)phenyl)-5,6,7,8-tetrahydroquinolin-2(1H)-one] |  | −B | +B | +B
9 | O=c1c(-c2cccc(Cl)c2)cc2c(n1CC1CCCCC1)CCCC2 [Compound 25, 3-(3-chlorophenyl)-1-(cyclohexylmethyl)-5,6,7,8-tetrahydroquinolm-2(1H)-one] |  | +A | +B | +B
10 | Cn1cc(-c2cc3c(n(CC4CCC4)c2=O)CCCC3)cn1 [Compound 26, 1-(cyclobutylmethyl)-3-(1-methyl-1H-pyrazol-4-yl)-5,6,7,8-tetrahydroquinolin-2(1H)-one] | > 10 µM | +A | +B | 
11 | COc1ncc(-c2cc3c(n(CC4CCC4)c2=O)CCCC3)c(OC)n1 [Compound 29, 1-(cyclobutylmethyl)-3-(2,4-dimethoxypyrimidin-5-yl)-5,6,7,8-tetrahydroquinolin-2(1H)-one] | > 10 µM | +A | +B | 
12 | Cc1ccccc1Cc1cc2c(n(CC3CCC3)c1=O)CCCC2 [Compound 30, 1-(cyclobutylmethyl)-3-(2-methylbenzyl)-5,6,7,8-tetrahydroquinolin-2(1H)-one] | > 10 µM | +A | +A | 
13 | O=c1c(Cc2ccccc2F)cc2c(n1CC1CCC1)CCCC2 [Compound 31, 1-(cyclobutylmethyl)-3-(2-fluorobenzyl)-5,6,7,8-tetrahydroquinolin-2(1H)-one] | > 10 µM | +A | +A | 
14 | O=c1c(Cc2ccncc2)cc2c(n1CC1CCC1)CCCC2 [Compound 32, 1-(cyclobutylmethyl)-3-(pyridin-4-ylmethyl)-5,6,7,8-tetrahydroquinolin-2(1H)-one] | > 10 µM | +B | +B | 
15 | O=c1c(Cc2ccc(F)cc2)cc2c(n1CC1CCC1)CCCC2 [Compound 33, 1-(cyclobutylmethyl)-3-(4-fluorobenzyl)-5,6,7,8-tetrahydroquinolin-2(1H)-one] | > 10 µM | +B | +B | 
16 | O=c1c(Cc2ccccc2)cc2c(n1CC1CCC1)CCCC2 [Compound 34, 3-benzyl-1-(cyclobutylmethyl)-5,6,7,8-tetrahydroquinolin-2(1H)-one] | > 10 µM | +B | +B | 
17 | O=c1c(-c2ccc(C(F)(F)F)cc2)cc2c(n1CC1CCC1)CCNC2 [Compound 39, 3-(4-(trifluoromethyl)phenyl)-1-(cyclobutylmethyl)-5,6,7,8-tetrahydro-1,6-naphthyridin-2(1H)-one] | > 10 µM | +C | +C | 
18 | O=c1c(-c2cccnc2)cc2c(n1CC1CCC1)CCNC2 [Compound 40, 1-(cyclobutylmethyl)-3-(pyridin-3-yl)-5,6,7,8-tetrahydro-1,6-naphthyridin-2(1H)-one] | > 10 µM | +B | +C | 
19 | CS(=O)(=O)N1CCc2c(cc(-c3cccc(Cl)c3)c(=O)n2CC2CCC2)C1 [Compound 41, 3-(3-chlorophenyl)-1-(cyclobutylmethyl)-6-(methylsulfonyl)-5,6,7,8-tetrahydro-1,6-naphthyridin-2(1H)-one] | > 10 µM | +A | +A | 
20 | CC(=O)N1CCc2c(cc(-c3cccc(Cl)c3)c(=O)n2CC2CCC2)C1 [Compound 42, 6-acetyl-3-(3-chlorophenyl)-1-(cyclobutylmethyl)-5,6,7,8-tetrahydro-1,6-naphthyridin-2(1H)-one] |  | +A | +A | +C
21 | CS(=O)(=O)N1CCc2c(cc(-c3ccc(C(F)(F)F)cc3)c(=O)n2CC2CCC2)C1 [Compound 43, 1-(cyclobutylmethyl)-6-(methylsulfonyl)-3-(4-(trifluoromethyl)phenyl)-5,6,7,8-tetrahydro-1,6-naphthyridin-2(1H)-one] | > 10 µM | +B | +A | 
